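Compound exposure: 48 hours, 5 concentrations, 96-well plates. Abbreviation: GI50, concentration required for 50% inhibition of growth.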 Activity calls are given as the source filed them. Rule as the data show it: active = GI50 up to about 1.1 µM and inactive = higher.
What was measured:
Experiment in all cases: NCI anticancer screen, dose series, 48 h
[1] = tested on: EKVX
[2] = tested on: HCC 2998
[3] = tested on: K562
[4] = tested on: M19-MEL
[5] = tested on: OVCAR-3
[6] = tested on: OVCAR-5
[7] = tested on: RXF 393
[8] = tested on: SF-539
[9] = tested on: SK-OV-3
[10] = tested on: SNB-19
[11] = tested on: SNB-75
[12] = tested on: SW-620
[13] = tested on: U-251
[14] = tested on: UACC-257
[15] = tested on: UO-31
[16] = tested on: HOP-92
[17] = tested on: MDA-MB-231
[18] = tested on: MDA-MB-435
[19] = tested on: MDA-N
[20] = tested on: NCI/ADR-RES

In the case of `CCCC12Cc3c(OC)ccc(OC)c3CC(Cc3c(OC)ccc(OC)c31)C2=O` (centres undefined), the GI50 [1] is reported as > 100 µM (inactive), the GI50 [2] is reported as > 100 µM (inactive) and the GI50 [3] is reported as > 100 µM (inactive). For the same compound, the GI50 [4] was > 100 µM (inactive), the GI50 [5] was > 100 µM (inactive) and the GI50 [6] was > 100 µM (inactive). The GI50 [7] was > 100 µM (inactive), the GI50 [8] was > 100 µM (inactive) and the GI50 [9] was > 100 µM (inactive). The GI50 [10] was > 100 µM (inactive), the GI50 [11] was > 100 µM (inactive) and the GI50 [12] was > 100 µM (inactive). For the same compound, the GI50 [13] was > 100 µM (inactive), the GI50 [14] was > 100 µM (inactive) and the GI50 [15] was > 100 µM (inactive).
`COC1(OC)C2(Cl)C(Cl)=C(Cl)C1(Cl)C1C2C2CC1(C(=O)O)c1ccccc12` (centres undefined) was tested, and the GI50 [2] was 22.9 µM (inactive), the GI50 [16] was 35.6 µM (inactive) and the GI50 [3] was 15.9 µM (inactive). The GI50 [4] was 18.9 µM (inactive), the GI50 [5] was 18.2 µM (inactive) and the GI50 [6] was > 10 µM (inactive). The GI50 [9] was 33.3 µM (inactive), the GI50 [10] was 67.1 µM (inactive) and the GI50 [12] was 18.8 µM (inactive). The GI50 [13] was 18.5 µM (inactive), the GI50 [14] was 14.6 µM (inactive) and the GI50 [15] was 21.9 µM (inactive).
For `CCCCc1c2c(nc3c1CCc1cc4cc5c(nc4nc1-3)-c1nc3c(c(CCCC)c1CC5)CCCC3)CCCC2`, the GI50 [1] was 12.5 µM (inactive), the GI50 [2] was 62.2 µM (inactive) and the GI50 [3] was 39.4 µM (inactive). The GI50 [4] was 54 µM (inactive), the GI50 [5] was > 10 µM (inactive) and the GI50 [7] was 6.56 µM (inactive). For the same compound, the GI50 [8] was 16.4 µM (inactive), the GI50 [9] was 36.5 µM (inactive) and the GI50 [10] was 34.4 µM (inactive). For the same compound, the GI50 [11] was 49.9 µM (inactive), the GI50 [12] was 40 µM (inactive) and the GI50 [13] was 31.8 µM (inactive). The GI50 [14] was 59.8 µM (inactive) and the GI50 [15] was 68.5 µM (inactive).
`CC(C)CC(=O)NS(=O)(=O)c1ccccc1` was tested, and the GI50 [1] was > 100 µM (inactive), the GI50 [2] was > 100 µM (inactive) and the GI50 [16] was > 100 µM (inactive). For the same compound, the GI50 [3] was > 100 µM (inactive), the GI50 [4] was > 100 µM (inactive) and the GI50 [5] was > 100 µM (inactive). The GI50 [6] was > 100 µM (inactive), the GI50 [7] was > 100 µM (inactive) and the GI50 [8] was > 100 µM (inactive). The GI50 [9] was > 100 µM (inactive), the GI50 [10] was > 100 µM (inactive) and the GI50 [11] was > 100 µM (inactive). The GI50 [12] was > 100 µM (inactive), the GI50 [13] was > 100 µM (inactive) and the GI50 [14] was > 100 µM (inactive). The GI50 [15] was > 100 µM (inactive).
In the case of `COc1ccc(/C=N/Nc2nc(-c3cc4oc(=O)n(C)c4cc3Cl)cs2)cc1OC`, the GI50 [1] is reported as 9.51 µM (inactive), the GI50 [2] is reported as 35.6 µM (inactive) and the GI50 [16] is reported as 25.4 µM (inactive). For the same compound, the GI50 [3] was 4.89 µM (inactive), the GI50 [4] was 7.8 µM (inactive) and the GI50 [5] was 9.95 µM (inactive). The GI50 [6] was > 100 µM (inactive), the GI50 [7] was 15.4 µM (inactive) and the GI50 [8] was 48.3 µM (inactive). For the same compound, the GI50 [9] was > 100 µM (inactive), the GI50 [10] was 49.2 µM (inactive) and the GI50 [11] was 28.7 µM (inactive). The GI50 [12] was 44.1 µM (inactive), the GI50 [13] was 15.7 µM (inactive) and the GI50 [14] was 4.27 µM (inactive). For the same compound, the GI50 [15] was 13.6 µM (inactive).
For `COc1ccc2c(c1OC)C1=C(C2=O)c2cc3c(cc2CCN1)OCO3`, the GI50 [1] was 46.9 µM (inactive), the GI50 [2] was 32.1 µM (inactive) and the GI50 [16] was 58.6 µM (inactive). The GI50 [3] was 25.1 µM (inactive), the GI50 [4] was 42.1 µM (inactive) and the GI50 [5] was 31.6 µM (inactive). The GI50 [6] was 23.7 µM (inactive), the GI50 [7] was 42.7 µM (inactive) and the GI50 [8] was 28.2 µM (inactive). The GI50 [11] was 2.74 µM (inactive), the GI50 [12] was 22.5 µM (inactive) and the GI50 [14] was 34.5 µM (inactive). The GI50 [15] was 48.3 µM (inactive).
For `Cc1ccc(S(=O)(=O)N/N=C(/CC(=O)c2c(C)[n+]([O-])c3ccccc3[n+]2[O-])C(=O)Nc2ccccc2C)cc1`, the GI50 [1] was > 100 µM (inactive), the GI50 [2] was > 100 µM (inactive) and the GI50 [16] was 30.8 µM (inactive). For the same compound, the GI50 [4] was > 100 µM (inactive), the GI50 [5] was > 100 µM (inactive) and the GI50 [6] was > 100 µM (inactive). For the same compound, the GI50 [7] was > 100 µM (inactive), the GI50 [8] was > 100 µM (inactive) and the GI50 [9] was > 100 µM (inactive). For the same compound, the GI50 [10] was > 100 µM (inactive), the GI50 [11] was 31.2 µM (inactive) and the GI50 [12] was > 100 µM (inactive). The GI50 [13] was > 100 µM (inactive), the GI50 [14] was > 100 µM (inactive) and the GI50 [15] was > 100 µM (inactive).
In the case of `N=C(N)NCCCC(Nc1c2ccccc2nc2ccccc12)C(=O)O` (centres undefined), the GI50 [1] is reported as > 100 µM (inactive), the GI50 [2] is reported as > 100 µM (inactive) and the GI50 [16] is reported as > 100 µM (inactive). For the same compound, the GI50 [3] was 84.9 µM (inactive), the GI50 [4] was > 100 µM (inactive) and the GI50 [5] was 82.6 µM (inactive). For the same compound, the GI50 [6] was > 100 µM (inactive), the GI50 [7] was > 100 µM (inactive) and the GI50 [8] was > 100 µM (inactive). For the same compound, the GI50 [11] was > 100 µM (inactive), the GI50 [12] was > 100 µM (inactive) and the GI50 [13] was > 100 µM (inactive). The GI50 [14] was > 100 µM (inactive).
In the case of `CCOc1cc[n+]([C-](C#N)C#N)cc1`, the GI50 [1] is reported as > 100 µM (inactive), the GI50 [2] is reported as > 100 µM (inactive) and the GI50 [16] is reported as > 100 µM (inactive). The GI50 [3] was > 100 µM (inactive), the GI50 [4] was > 100 µM (inactive) and the GI50 [5] was > 100 µM (inactive). The GI50 [6] was > 100 µM (inactive), the GI50 [7] was > 100 µM (inactive) and the GI50 [8] was > 100 µM (inactive). The GI50 [9] was > 100 µM (inactive), the GI50 [10] was > 100 µM (inactive) and the GI50 [11] was > 100 µM (inactive). The GI50 [12] was > 100 µM (inactive), the GI50 [13] was > 100 µM (inactive) and the GI50 [14] was > 100 µM (inactive). The GI50 [15] was > 100 µM (inactive).
For `O=C1Cc2c([nH]c3ccccc23)-c2ccccc2N1` [PAULLONE], the GI50 [1] was 49.5 µM (inactive), the GI50 [2] was 19.9 µM (inactive) and the GI50 [16] was 62.5 µM (inactive). For the same compound, the GI50 [3] was 19.5 µM (inactive), the GI50 [4] was 53.1 µM (inactive) and the GI50 [5] was 23.1 µM (inactive). The GI50 [6] was 26.8 µM (inactive), the GI50 [7] was 16.1 µM (inactive) and the GI50 [8] was 18.3 µM (inactive). For the same compound, the GI50 [9] was > 100 µM (inactive), the GI50 [10] was 61.4 µM (inactive) and the GI50 [11] was 19.8 µM (inactive). For the same compound, the GI50 [12] was 28.2 µM (inactive), the GI50 [13] was 39.6 µM (inactive) and the GI50 [14] was 59.2 µM (inactive). The GI50 [15] was 27.2 µM (inactive).
With `CC(C)(C)C(=O)CC(=O)C(C)(C)C.CC(C)(C)C(=O)CC(=O)C(C)(C)C.[SiH4]` the GI50 [1] was < 0.01 µM (active), the GI50 [2] was 0.393 µM (active) and the GI50 [16] was 0.692 µM (active). The GI50 [3] was 1.57 µM (inactive), the GI50 [4] was 1.86 µM (inactive) and the GI50 [5] was 2.07 µM (inactive). The GI50 [6] was 2.21 µM (inactive), the GI50 [8] was 2.56 µM (inactive) and the GI50 [9] was 1.87 µM (inactive). The GI50 [10] was 1.96 µM (inactive), the GI50 [11] was 0.719 µM (active) and the GI50 [12] was 0.847 µM (active). For the same compound, the GI50 [13] was 0.596 µM (active), the GI50 [14] was 2.44 µM (inactive) and the GI50 [15] was 1.99 µM (inactive).
In the case of `O=C(Nc1nncs1)NS(=O)(=O)n1c(=S)sc2ccccc21`, the GI50 [1] is reported as 72.6 µM (inactive), the GI50 [2] is reported as > 100 µM (inactive) and the GI50 [16] is reported as > 100 µM (inactive). For the same compound, the GI50 [3] was > 100 µM (inactive), the GI50 [17] was > 100 µM (inactive) and the GI50 [18] was > 100 µM (inactive). The GI50 [19] was > 100 µM (inactive), the GI50 [20] was > 100 µM (inactive) and the GI50 [5] was > 100 µM (inactive). For the same compound, the GI50 [6] was > 100 µM (inactive), the GI50 [7] was > 100 µM (inactive) and the GI50 [8] was > 100 µM (inactive). For the same compound, the GI50 [9] was > 100 µM (inactive), the GI50 [10] was > 100 µM (inactive) and the GI50 [11] was > 100 µM (inactive). For the same compound, the GI50 [12] was > 100 µM (inactive), the GI50 [13] was > 100 µM (inactive) and the GI50 [14] was > 100 µM (inactive). The GI50 [15] was > 100 µM (inactive).
In the case of `COc1ccc(N/N=C2\C3=C(CCC(C)(C)O3)C(=O)c3ccccc32)cc1`, the GI50 [1] is reported as 18.1 µM (inactive), the GI50 [2] is reported as 12.1 µM (inactive) and the GI50 [16] is reported as 21.1 µM (inactive). For the same compound, the GI50 [3] was 15.9 µM (inactive), the GI50 [17] was 22.2 µM (inactive) and the GI50 [18] was 17.1 µM (inactive). For the same compound, the GI50 [19] was 15.6 µM (inactive), the GI50 [20] was 19.6 µM (inactive) and the GI50 [5] was 14.9 µM (inactive). The GI50 [6] was 19.4 µM (inactive), the GI50 [7] was 12.4 µM (inactive) and the GI50 [8] was 24.4 µM (inactive). The GI50 [9] was 37 µM (inactive), the GI50 [10] was 21.9 µM (inactive) and the GI50 [11] was 19 µM (inactive). For the same compound, the GI50 [12] was 34 µM (inactive), the GI50 [13] was 19.2 µM (inactive) and the GI50 [14] was 19.7 µM (inactive). For the same compound, the GI50 [15] was 18.1 µM (inactive).

From ChEMBL document CHEMBL1201862, “PubChem BioAssay data set” (2004)
